{
  "source": "ChEMBL document CHEMBL6115029",
  "about": "“Discovery of Daraxonrasib (RMC-6236), a Potent and Orally Bioavailable RAS(ON) Multi-selective, Noncovalent Tri-complex Inhibitor for the Treatment of Patients with Multiple RAS-Addicted Cancers” (J Med Chem, 2025)",
  "key": {"MIA PaCa-2": {"system": "MIA PaCa-2", "test": "Antitumor activity against human MIA PaCa-2 cells harboring KRAS G12C/G12C mutant xenografted in female BALB/c mouse model assessed as tumor regression at 25 mg/kg, po administered once daily for 28 days", "type": "functional, organism-based", "conditions": "time 28.0 day"}, "[1]": {"test": "Inhibition of 6His-tagged KRAS G12C mutant(1 to 169 residues)/GST-tagged GMPPNP-bound BRAF RBD (155 to 229 reisudes)/Cyclophilin A (unknown origin) tri-complex protein-protein interaction incubated for 3 hrs by TR-FERT based disruption assay", "parameters": "species or system Homo sapiens"}, "[2]": {"test": "Toxicity in female BALB/c nude mouse xenografted with human HPAF-II cells harboring wildtype KRAS/KRAS G12D mutant assessed as effect on body weight at 25 mg/kg, po administered once daily for 28 days", "type": "organism-based", "conditions": "in vivo, 672 h, time 28 day"}, "[3]": {"test": "Toxicity in female BALB/c nude mouse xenografted with human NCI-H1373 cells harboring KRAS G12C/KRAS G12C mutant assessed as effect on body weight at 25 mg/kg, po administered once daily for 28 days", "type": "organism-based", "conditions": "in vivo, 672 h, time 28 day"}, "[4]": {"test": "Lipophilicity, logD of compound at pH 7.4 by Agilent 1290 II uPLC analysis", "type": "physicochemical", "conditions": "buffer"}, "[5]": {"test": "Oral bioavailability in male Sprague-Dawley rat at 60 mg/kg measured after 24 hrs by LC-MS/MS analysis", "type": "ADME, organism-based", "conditions": "in vivo"}, "[6]": {"test": "Clearance in male Beagle dog at 1 mg/kg, iv measured after 24 hrs by LC-MS/MS analysis", "type": "ADME, organism-based, Canis lupus familiaris", "conditions": "in vivo"}, "SK-MEL-30 [7]": {"system": "SK-MEL-30", "test": "Inhibition of ERK1/2 phosphorylation in human SK-MEL-30 cells harboring […] mutant incubated for 4 hrs by AlphaLISA assay", "type": "cell-based"}, "[8]": {"test": "Clearance in female BALB/c mouse blood at 1 mg/kg, iv measured after 24 hrs by LC-MS/MS analysis", "type": "ADME, organism-based"}, "[9]": {"test": "Inhibition of ERK1/2 phosphorylation in human NCI-H358 cells harboring KRAS G12C mutant incubated for 4 hrs by AlphaLISA assay", "type": "cell-based", "conditions": "NCI-H358, 4 h"}, "[10]": {"test": "Toxicity in human PBL cells in absence of rat S9 fraction by micronucleus assay", "type": "cell-based"}, "[11]": {"test": "Metabolic stability in mouse liver microsomes assessed as half-life at 2 uM measured upto 60 mins in presence of NADPH by LC-MS/MS analysis", "type": "ADME, Microsome"}, "[12]": {"test": "Toxicity in human PBL cells in presence of rat S9 fraction by micronucleus assay", "type": "subcellular"}, "NCI-H441": {"system": "NCI-H441", "test": "Antitumor activity against human NCI-H441 cells harboring wildtype KRAS/KRAS G12V mutant xenografted in female BALB/c nude mouse assessed as tumor regression at 25 mg/kg, po administered once daily for 28 days", "type": "functional, organism-based", "conditions": "time 28.0 day"}, "[13]": {"test": "Tmax in female BALB/c mouse at 10 mg/kg, po measured after 24 hrs by LC-MS/MS analysis", "type": "ADME, organism-based", "conditions": "in vivo"}, "A-375": {"system": "A-375", "test": "Cytotoxicity against human A-375 cells assessed as reduction in cell viability incubated for 120 hrs by CellTiter-Glo luminescence assay", "type": "functional, cell-based", "conditions": "A-375, 120 h"}, "HCT-116": {"system": "HCT-116", "test": "Cytotoxicity against human HCT-116 cells harboring KRAS G13D mutant cultured as 2D cells assessed as inhibition of cell proliferation incubated for 120 hrs by CellTiter-Glo luminescence assay", "type": "functional, cell-based"}, "SK-MEL-30 [14]": {"system": "SK-MEL-30", "test": "Cytotoxicity against human SK-MEL-30 cells harboring […] mutant cultured as 2D cells assessed as inhibition of cell proliferation incubated for 120 hrs by CellTiter-Glo luminescence assay", "type": "functional, cell-based"}, "[15]": {"test": "Oral bioavailability in male Beagle dog at 5 mg/kg measured after 24 hrs by LC-MS/MS analysis", "type": "ADME, organism-based, Canis lupus familiaris", "conditions": "in vivo"}, "[16]": {"test": "Apparent permeability across apical to basolateral side in human Caco-2 cells at 5 uM incubated for 2 hrs by LC-MS/MS analysis", "type": "ADME, cell-based"}, "CAPAN-1": {"system": "CAPAN-1", "test": "Cytotoxicity against human CAPAN-1 cells harboring KRAS G12V mutant cultured as 2D cells assessed as reduction in cell viability incubated for 120 hrs by CellTiter-Glo luminescence assay", "type": "functional, cell-based", "conditions": "CAPAN-1, 120 h"}, "NCI-H358": {"system": "NCI-H358", "test": "Cytotoxicity against human NCI-H358 cells harboring KRAS G12C mutant cultured as 2D cells assessed as reduction in cell viability incubated for 120 hrs by CellTiter-Glo luminescence assay", "type": "functional, cell-based", "conditions": "NCI-H358, 120 h"}, "[17]": {"test": "Ratio of drug concentration in mouse blood to plasma at 0.1 uM measured upto 120 mins by LC-MS/MS analysis", "type": "ADME, cell-free"}, "[18]": {"test": "Inhibition of ERK1/2 phosphorylation in human ASPC1 cells harboring KRAS G12D mutant incubated for 4 hrs by AlphaLISA assay", "type": "cell-based", "conditions": "ASPC1, 4 h"}, "[19]": {"biological_target": "Voltage-dependent L-type calcium channel subunit alpha-1C (Homo sapiens, UniProt Q13936)", "sequence (Q13936 whole entry)": "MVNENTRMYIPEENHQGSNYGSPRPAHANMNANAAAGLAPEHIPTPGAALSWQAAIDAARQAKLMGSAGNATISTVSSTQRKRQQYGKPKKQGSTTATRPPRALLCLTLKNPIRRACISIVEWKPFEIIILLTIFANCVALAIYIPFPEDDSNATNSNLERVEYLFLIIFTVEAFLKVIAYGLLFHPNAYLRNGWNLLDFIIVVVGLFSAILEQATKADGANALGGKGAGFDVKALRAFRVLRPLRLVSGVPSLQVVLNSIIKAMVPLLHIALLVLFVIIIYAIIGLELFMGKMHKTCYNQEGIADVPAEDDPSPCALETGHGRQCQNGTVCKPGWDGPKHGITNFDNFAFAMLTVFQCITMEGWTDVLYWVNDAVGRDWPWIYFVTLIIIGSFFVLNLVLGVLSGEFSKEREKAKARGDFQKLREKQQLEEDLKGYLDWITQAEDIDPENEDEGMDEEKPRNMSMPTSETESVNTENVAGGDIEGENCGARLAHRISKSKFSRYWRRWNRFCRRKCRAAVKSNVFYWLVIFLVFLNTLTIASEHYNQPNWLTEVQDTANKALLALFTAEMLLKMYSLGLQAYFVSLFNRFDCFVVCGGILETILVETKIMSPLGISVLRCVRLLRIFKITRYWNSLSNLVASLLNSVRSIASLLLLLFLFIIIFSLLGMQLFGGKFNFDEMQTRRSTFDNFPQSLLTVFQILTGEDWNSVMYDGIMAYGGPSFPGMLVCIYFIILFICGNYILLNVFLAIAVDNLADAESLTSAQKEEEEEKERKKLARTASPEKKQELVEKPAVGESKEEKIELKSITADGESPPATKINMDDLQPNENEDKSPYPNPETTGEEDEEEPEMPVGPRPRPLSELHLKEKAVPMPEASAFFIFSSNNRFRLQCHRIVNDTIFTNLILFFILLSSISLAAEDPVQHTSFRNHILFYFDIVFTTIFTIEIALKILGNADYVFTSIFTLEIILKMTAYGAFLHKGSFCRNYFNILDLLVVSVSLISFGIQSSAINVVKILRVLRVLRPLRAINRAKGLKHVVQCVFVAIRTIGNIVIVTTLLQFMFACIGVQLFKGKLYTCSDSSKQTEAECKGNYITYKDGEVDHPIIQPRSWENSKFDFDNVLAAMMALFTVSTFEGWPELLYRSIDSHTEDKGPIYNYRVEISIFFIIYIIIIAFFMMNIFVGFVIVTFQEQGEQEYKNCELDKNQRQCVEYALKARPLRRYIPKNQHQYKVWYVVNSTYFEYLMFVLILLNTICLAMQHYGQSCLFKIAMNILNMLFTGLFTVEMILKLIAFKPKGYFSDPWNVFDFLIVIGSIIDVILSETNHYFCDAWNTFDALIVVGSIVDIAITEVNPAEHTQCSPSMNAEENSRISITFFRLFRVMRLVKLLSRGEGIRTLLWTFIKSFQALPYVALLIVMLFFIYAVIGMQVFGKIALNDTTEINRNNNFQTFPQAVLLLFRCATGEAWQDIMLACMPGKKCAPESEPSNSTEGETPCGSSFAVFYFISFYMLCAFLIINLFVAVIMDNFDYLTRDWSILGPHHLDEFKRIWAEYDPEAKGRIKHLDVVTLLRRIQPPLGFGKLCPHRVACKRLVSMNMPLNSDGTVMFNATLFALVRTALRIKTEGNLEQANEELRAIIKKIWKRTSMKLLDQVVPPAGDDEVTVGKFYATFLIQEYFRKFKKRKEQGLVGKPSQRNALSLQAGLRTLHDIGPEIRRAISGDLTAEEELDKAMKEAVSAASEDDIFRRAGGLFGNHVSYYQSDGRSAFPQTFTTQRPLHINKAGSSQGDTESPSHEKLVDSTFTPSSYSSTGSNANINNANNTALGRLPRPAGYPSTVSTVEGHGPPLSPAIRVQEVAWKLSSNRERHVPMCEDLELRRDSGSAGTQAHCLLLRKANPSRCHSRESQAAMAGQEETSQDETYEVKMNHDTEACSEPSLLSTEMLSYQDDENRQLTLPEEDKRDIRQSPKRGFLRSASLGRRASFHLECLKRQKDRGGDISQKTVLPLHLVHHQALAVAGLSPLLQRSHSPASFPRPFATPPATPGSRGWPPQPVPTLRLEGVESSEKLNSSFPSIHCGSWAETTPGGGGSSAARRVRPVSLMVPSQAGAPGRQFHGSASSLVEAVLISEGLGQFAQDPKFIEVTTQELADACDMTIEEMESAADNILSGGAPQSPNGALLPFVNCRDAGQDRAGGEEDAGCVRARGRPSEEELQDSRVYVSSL", "test": "Inhibition of human Cav1.2", "type": "toxicity"}, "[20]": {"test": "Tmax in male cynomolgus monkey at 10 mg/kg, po measured after 24 hrs by LC-MS/MS analysis", "type": "ADME, organism-based, Macaca fascicularis", "conditions": "in vivo"}, "[21]": {"test": "Half-life in male Beagle dog at 5 mg/kg, po measured after 24 hrs by LC-MS/MS analysis", "type": "ADME, organism-based, Canis lupus familiaris", "conditions": "in vivo"}, "Mus musculus": {"system": "Mus musculus", "test": "In vivo inhibition of MAPK signaling pathway in female BALB/c nude mouse xenografted with human MIA PaCa-2 cells harboring KRAS G12C/G12C mutant assessed as reduction in DUSP6 mRNA level in tumor at 3 to 10 mg/kg, po administered as single dose and measured upto 48 hrs by qPCR analysis", "type": "functional, organism-based", "conditions": "dose 3-10 mg/kg"}, "HPAF-II": {"system": "HPAF-II", "test": "Antitumor activity against human HPAF-II cells harboring wildtype KRAS/KRAS G12D mutant xenografted in female BALB/c mouse model assessed as reduction in tumor volume administered orally as once daily dose for 28 days", "type": "functional, cell-based", "conditions": "dose 3-25 mg/kg, route po, time 28.0 day"}, "[22]": {"test": "In vivo inhibition of MAPK signaling pathway in female BALB/c nude mouse xenografted with human MIA PaCa-2 cells harboring KRAS G12C/G12C mutant assessed as reduction in DUSP6 mRNA level in tumor at 25 mg/kg, po administered as single dose and measured after 8 hrs by qPCR analysis relative to control", "type": "functional"}, "[23]": {"biological_target": "Voltage-gated inwardly rectifying potassium channel KCNH2 (Homo sapiens, UniProt Q12809)", "sequence (Q12809 whole entry)": "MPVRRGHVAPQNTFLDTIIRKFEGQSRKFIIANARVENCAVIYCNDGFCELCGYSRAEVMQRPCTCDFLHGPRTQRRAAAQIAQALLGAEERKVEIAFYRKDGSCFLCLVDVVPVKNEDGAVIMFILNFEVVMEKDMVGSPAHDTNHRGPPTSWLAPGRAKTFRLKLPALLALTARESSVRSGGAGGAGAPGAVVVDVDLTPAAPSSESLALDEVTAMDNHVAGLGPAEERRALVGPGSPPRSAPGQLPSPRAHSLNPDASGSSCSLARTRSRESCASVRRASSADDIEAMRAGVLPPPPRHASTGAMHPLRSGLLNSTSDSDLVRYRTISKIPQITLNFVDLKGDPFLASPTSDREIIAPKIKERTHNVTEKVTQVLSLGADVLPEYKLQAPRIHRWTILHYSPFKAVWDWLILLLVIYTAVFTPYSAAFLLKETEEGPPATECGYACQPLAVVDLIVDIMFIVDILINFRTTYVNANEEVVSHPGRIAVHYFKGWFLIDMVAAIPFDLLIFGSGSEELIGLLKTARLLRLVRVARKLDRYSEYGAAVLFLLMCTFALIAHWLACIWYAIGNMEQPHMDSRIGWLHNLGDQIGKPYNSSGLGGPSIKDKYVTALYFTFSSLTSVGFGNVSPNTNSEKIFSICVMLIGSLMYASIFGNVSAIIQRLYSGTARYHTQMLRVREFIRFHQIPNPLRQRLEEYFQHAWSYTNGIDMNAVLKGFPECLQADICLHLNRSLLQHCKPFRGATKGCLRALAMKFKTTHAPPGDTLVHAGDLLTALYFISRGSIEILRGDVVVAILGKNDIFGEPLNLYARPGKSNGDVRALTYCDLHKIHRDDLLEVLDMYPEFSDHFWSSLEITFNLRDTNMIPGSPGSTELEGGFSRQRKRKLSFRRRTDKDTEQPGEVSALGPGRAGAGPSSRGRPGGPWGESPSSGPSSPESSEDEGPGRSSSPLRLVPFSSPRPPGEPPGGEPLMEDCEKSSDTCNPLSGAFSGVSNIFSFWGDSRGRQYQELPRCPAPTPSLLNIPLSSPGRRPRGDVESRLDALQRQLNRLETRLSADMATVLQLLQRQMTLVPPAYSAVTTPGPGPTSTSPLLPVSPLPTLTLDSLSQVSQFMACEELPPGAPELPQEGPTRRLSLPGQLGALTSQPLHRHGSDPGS", "test": "Inhibition of human ERG", "type": "toxicity"}, "[24]": {"test": "Half-life in male Beagle dog at 1 mg/kg, iv measured after 24 hrs by LC-MS/MS analysis", "type": "ADME, organism-based, Canis lupus familiaris", "conditions": "in vivo"}, "[25]": {"test": "Half-life in male Sprague-Dawley rat at 1 mg/kg, iv measured after 24 hrs by LC-MS/MS analysis", "type": "ADME, organism-based", "conditions": "in vivo"}, "[26]": {"test": "Clearance in male cynomolgus monkey at 1 mg/kg, iv measured after 24 hrs by LC-MS/MS analysis", "type": "ADME, organism-based, Macaca fascicularis", "conditions": "in vivo"}, "[27]": {"test": "Inhibition of ERK1/2 phosphorylation in human CAPAN-1 cells harboring KRAS G12V mutant incubated for 4 hrs by AlphaLISA assay", "type": "cell-based", "conditions": "CAPAN-1, 4 h"}, "NCI-H1975": {"system": "NCI-H1975", "test": "Cytotoxicity against human NCI-H1975 cells harboring wildtype KRAS cultured as 2D cells assessed as reduction in cell viability incubated for 120 hrs by CellTiter-Glo luminescence assay", "type": "functional, cell-based", "conditions": "NCI-H1975, 120 h"}},
  "note": "Calls of active or inactive are those of the source. The rule behind the calls is not given here.",
  "data": [
    {"smiles": "CCn1c(-c2cc(N3CCN(C)CC3)cnc2[C@H](C)OC)c2c3cc(ccc31)-c1csc(n1)C[C@H](NC(=O)[C@H]1C[C@@H]1C)C(=O)N1CCC[C@H](N1)C(=O)OCC(C)(C)C2", "values": [
      {"measurement": "Activity", "setting": "MIA PaCa-2", "result": "Active"},
      {"measurement": "IC50", "setting": "[1]", "result": 35, "unit": "nM"},
      {"measurement": "Activity", "setting": "[2]", "result": "Non-toxic"},
      {"measurement": "Activity", "setting": "[3]", "result": "Non-toxic"},
      {"measurement": "logD", "setting": "[4]", "result": 4.5},
      {"measurement": "bioavailability", "setting": "[5]", "result": 27, "unit": "%"},
      {"measurement": "clearance", "setting": "[6]", "result": 6.67, "unit": "mL/min/kg"},
      {"measurement": "inhibition", "setting": "SK-MEL-30 [7]", "result": "Active"},
      {"measurement": "clearance", "setting": "[8]", "result": 8.33, "unit": "mL/min/kg"},
      {"measurement": "EC50", "setting": "[9]", "result": 1.6, "unit": "nM"},
      {"measurement": "Activity", "setting": "[10]", "result": "Non-toxic"},
      {"measurement": "half-life at 2 µM", "setting": "[11]", "result": 68, "unit": "min"},
      {"measurement": "Activity", "setting": "[12]", "result": "Non-toxic"},
      {"measurement": "Activity", "setting": "NCI-H441", "result": "Active"},
      {"measurement": "Tmax", "setting": "[13]", "result": 1.7, "unit": "h"},
      {"measurement": "EC50", "setting": "A-375", "result": 7.21, "unit": "µM"},
      {"measurement": "Activity", "setting": "HCT-116", "result": "Active"},
      {"measurement": "Activity", "setting": "SK-MEL-30 [14]", "result": "Active"},
      {"measurement": "bioavailability", "setting": "[15]", "result": 33, "unit": "%"},
      {"measurement": "Papp A→B at 2 h, 5 µM", "setting": "[16]", "result": 0.4, "unit": "×10⁻⁶ cm/s"},
      {"measurement": "EC50", "setting": "CAPAN-1", "result": 1.3, "unit": "nM"},
      {"measurement": "EC50", "setting": "NCI-H358", "result": 1, "unit": "nM"},
      {"measurement": "blood plasma ratio at 2 h, 0.1 µM", "setting": "[17]", "result": 4.2},
      {"measurement": "EC50", "setting": "[18]", "result": 3.6, "unit": "nM"},
      {"measurement": "IC50", "setting": "[19]", "result": "> 30", "unit": "µM"},
      {"measurement": "Tmax", "setting": "[20]", "result": 3.7, "unit": "h"},
      {"measurement": "half-life", "setting": "[21]", "result": 318, "unit": "min"},
      {"measurement": "inhibition", "setting": "Mus musculus", "result": "Not active; Pathway Reactivation Observed"},
      {"measurement": "Activity", "setting": "HPAF-II", "result": "Dose-dependent-effect"},
      {"measurement": "inhibition in vivo at 25 mg/kg", "setting": "[22]", "result": 98, "unit": "%"},
      {"measurement": "IC50", "setting": "[23]", "result": 8.9, "unit": "µM"},
      {"measurement": "half-life", "setting": "[24]", "result": 366, "unit": "min"},
      {"measurement": "half-life", "setting": "[25]", "result": 102, "unit": "min"},
      {"measurement": "clearance", "setting": "[26]", "result": 8.33, "unit": "mL/min/kg"},
      {"measurement": "EC50", "setting": "[27]", "result": 0.3, "unit": "nM"},
      {"measurement": "EC50", "setting": "NCI-H1975", "result": 1.4, "unit": "nM"}
    ]}
  ]
}
